Data: paper PMC11079024, “Identification of a family of species-selective complex I inhibitors as potential anthelmintics” (Nature Communications, 2024)
Where two headings read alike, the source gives them in different places.

Columns and labels:
[1] = biological target: C. elegans (N2) complex I (NADH:ubiquinone oxidoreductase) (Caenorhabditis elegans, UniProt P24887+Q93873+Q94360); assay: biochemical; type: biochemical
Summary of the method: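 Complex I rate: initial linear slope of A600 over 15 min, expressed as percent of solvent control. Triple freeze-thawed mitochondria (0.2 mg/mL) in KPi pH 7.5, BSA 3 mg/mL, NADH 80 μM, decylubiquinone 60 μM, DCIP 160 μM, antimycin A, KCN.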

[2] = biological target: B. taurus (heart) complex I (Bos taurus, UniProt P03887+P17694+P42026); assay: biochemical; type: biochemical
B. taurus (heart) complex I, sequence (P03887 whole entry): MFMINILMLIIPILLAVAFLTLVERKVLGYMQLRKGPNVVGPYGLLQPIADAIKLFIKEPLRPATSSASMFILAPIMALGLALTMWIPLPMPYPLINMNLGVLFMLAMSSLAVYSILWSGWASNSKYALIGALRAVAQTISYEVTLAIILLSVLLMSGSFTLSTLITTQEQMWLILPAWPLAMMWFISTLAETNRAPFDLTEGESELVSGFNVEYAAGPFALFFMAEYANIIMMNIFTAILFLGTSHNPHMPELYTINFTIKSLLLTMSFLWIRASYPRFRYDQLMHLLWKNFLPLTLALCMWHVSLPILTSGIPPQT
B. taurus (heart) complex I, sequence (P17694 34-463): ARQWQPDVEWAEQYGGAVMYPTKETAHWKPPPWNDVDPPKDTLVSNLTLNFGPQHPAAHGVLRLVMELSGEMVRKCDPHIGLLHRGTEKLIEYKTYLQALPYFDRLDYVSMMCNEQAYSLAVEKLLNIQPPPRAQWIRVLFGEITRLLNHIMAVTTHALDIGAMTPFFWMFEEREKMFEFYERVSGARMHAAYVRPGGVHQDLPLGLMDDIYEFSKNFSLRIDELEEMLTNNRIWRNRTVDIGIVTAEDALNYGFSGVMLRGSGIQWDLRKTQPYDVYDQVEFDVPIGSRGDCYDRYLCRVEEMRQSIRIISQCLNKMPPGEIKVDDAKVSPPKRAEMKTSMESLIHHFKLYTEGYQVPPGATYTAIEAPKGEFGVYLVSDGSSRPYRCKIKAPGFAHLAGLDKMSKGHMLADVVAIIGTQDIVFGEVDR
B. taurus (heart) complex I, sequence (P42026 38-216): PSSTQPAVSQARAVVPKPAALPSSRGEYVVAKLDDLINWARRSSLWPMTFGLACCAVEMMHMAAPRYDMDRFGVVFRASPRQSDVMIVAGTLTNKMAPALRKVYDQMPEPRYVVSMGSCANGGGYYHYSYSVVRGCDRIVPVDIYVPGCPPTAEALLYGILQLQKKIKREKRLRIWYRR
Summary of the method: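 Complex I activity followed as DCIP reduction (600 nm, 30 s reads, 15 min) with 80 μM NADH and 60 μM decylubiquinone in 25 mM KPi pH 7.5 containing 2 μM antimycin A and 2 mM KCN. Freeze-thawed mouse or bovine heart mitochondria at 0.2 mg/mL; initial-rate percent of solvent control, single-point 100 μM or dose-response.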

C. elegans (N2) complex I (NADH:ubiquinone oxidoreductase), sequence (Q94360 17-199): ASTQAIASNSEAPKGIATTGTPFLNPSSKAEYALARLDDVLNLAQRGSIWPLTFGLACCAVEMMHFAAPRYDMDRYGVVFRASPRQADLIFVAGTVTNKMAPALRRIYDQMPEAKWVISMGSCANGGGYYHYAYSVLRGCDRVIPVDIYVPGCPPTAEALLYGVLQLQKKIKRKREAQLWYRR
C. elegans (N2) complex I (NADH:ubiquinone oxidoreductase), sequence (P24887 whole entry): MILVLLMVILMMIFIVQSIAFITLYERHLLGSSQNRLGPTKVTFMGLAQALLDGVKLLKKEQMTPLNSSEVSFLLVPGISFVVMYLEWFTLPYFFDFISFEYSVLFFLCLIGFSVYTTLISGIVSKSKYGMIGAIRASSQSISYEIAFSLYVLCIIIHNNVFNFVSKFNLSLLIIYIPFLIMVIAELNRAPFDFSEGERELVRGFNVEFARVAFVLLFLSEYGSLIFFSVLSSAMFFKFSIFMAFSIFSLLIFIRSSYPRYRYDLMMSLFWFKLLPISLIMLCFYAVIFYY
C. elegans (N2) complex I (NADH:ubiquinone oxidoreductase), sequence (Q93873 31-482): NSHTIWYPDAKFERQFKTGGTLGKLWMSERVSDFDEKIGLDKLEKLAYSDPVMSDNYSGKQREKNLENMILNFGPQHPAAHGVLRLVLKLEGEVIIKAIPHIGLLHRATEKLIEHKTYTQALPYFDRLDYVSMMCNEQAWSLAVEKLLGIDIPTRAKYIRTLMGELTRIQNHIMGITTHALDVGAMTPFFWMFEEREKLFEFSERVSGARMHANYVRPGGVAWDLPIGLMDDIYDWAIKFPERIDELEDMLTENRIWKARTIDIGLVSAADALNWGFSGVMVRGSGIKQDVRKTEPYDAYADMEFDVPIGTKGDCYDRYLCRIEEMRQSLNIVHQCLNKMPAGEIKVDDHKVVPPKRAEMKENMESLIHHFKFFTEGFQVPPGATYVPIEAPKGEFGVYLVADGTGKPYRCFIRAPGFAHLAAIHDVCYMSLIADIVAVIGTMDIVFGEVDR

CCCOc1ccc(Cn2cnc3ccccc32)cc1 [Compound 7355741]
activity at 0.0001 µM ([1]; Dose 0.0001 µM, read-out: C. elegans mitochondrial complex I activity): 85.2%
activity at 0.0005 µM ([1]; Dose 0.0005 µM, read-out: C. elegans mitochondrial complex I activity): 94.7%
activity at 0.001 µM ([1]; Dose 0.001 µM, read-out: C. elegans mitochondrial complex I activity): 89.8%
activity at 0.0025 µM ([1]; Dose 0.0025 µM, read-out: C. elegans mitochondrial complex I activity): 99%
activity at 0.005 µM ([1]; Dose 0.005 µM, read-out: C. elegans mitochondrial complex I activity): 86.1%
activity at 0.013 µM ([1]; Dose 0.013 µM, read-out: C. elegans mitochondrial complex I activity): 94.6%
activity at 0.025 µM ([1]; Dose 0.025 µM, read-out: C. elegans mitochondrial complex I activity): 90.6%
activity at 0.063 µM ([1]; Dose 0.063 µM, read-out: C. elegans mitochondrial complex I activity): 82.3%
activity at 0.125 µM ([1]; Dose 0.125 µM, read-out: C. elegans mitochondrial complex I activity): 77.2%
activity at 0.313 µM ([1]; Dose 0.313 µM, read-out: C. elegans mitochondrial complex I activity): 62.4%
activity at 0.625 µM ([1]; Dose 0.625 µM, read-out: C. elegans mitochondrial complex I activity): 47.9%
activity at 1.5 µM ([1]; Dose 1.5 µM, read-out: C. elegans mitochondrial complex I activity): 31.8%
activity at 3 µM ([1]; Dose 3 µM, read-out: C. elegans mitochondrial complex I activity): 15.1%
activity at 15 µM ([1]; Dose 15 µM, read-out: C. elegans mitochondrial complex I activity): 3.6%
activity at 37.5 µM ([1]; Dose 37.5 µM, read-out: C. elegans mitochondrial complex I activity): 5.38%
activity at 75 µM ([1]; Dose 75 µM, read-out: C. elegans mitochondrial complex I activity): 7.89%
IC50 ([1]; in vitro complex I dose response on C. elegans mitochondria, average of at least two biological replicates, fit in R (DRC), read-out: IC50 C. elegans complex I): 620 nM
Log IC50 C. elegans complex I ([1]; log10 of IC50 in µM, C. elegans mitochondria): -0.21 µM
IC50 ([1]; wild-type (N2) mitochondria, read-out: C. elegans Complex I IC50): 620 nM
IC50 ([1]; wild-type C. elegans mitochondria, estimated from fitted dose-response curves, read-out: C. elegans Complex I IC50): 620 nM
IC50 ([2]; B. taurus heart mitochondria, estimated from fitted dose-response curves, read-out: B. taurus Complex I IC50): 3070 nM
activity at 0.0001 µM ([2]; Dose 0.0001 µM, read-out: B. taurus mitochondrial complex I activity): 95.3%
activity at 0.0005 µM ([2]; Dose 0.0005 µM, read-out: B. taurus mitochondrial complex I activity): 97.8%
activity at 0.001 µM ([2]; Dose 0.001 µM, read-out: B. taurus mitochondrial complex I activity): 102%
activity at 0.0025 µM ([2]; Dose 0.0025 µM, read-out: B. taurus mitochondrial complex I activity): 105%
activity at 0.005 µM ([2]; Dose 0.005 µM, read-out: B. taurus mitochondrial complex I activity): 102%
activity at 0.013 µM ([2]; Dose 0.013 µM, read-out: B. taurus mitochondrial complex I activity): 104%
activity at 0.025 µM ([2]; Dose 0.025 µM, read-out: B. taurus mitochondrial complex I activity): 109%
activity at 0.063 µM ([2]; Dose 0.063 µM, read-out: B. taurus mitochondrial complex I activity): 57.4%
activity at 0.125 µM ([2]; Dose 0.125 µM, read-out: B. taurus mitochondrial complex I activity): 101%
activity at 0.313 µM ([2]; Dose 0.313 µM, read-out: B. taurus mitochondrial complex I activity): 97.1%
activity at 0.625 µM ([2]; Dose 0.625 µM, read-out: B. taurus mitochondrial complex I activity): 86%
activity at 1.5 µM ([2]; Dose 1.5 µM, read-out: B. taurus mitochondrial complex I activity): 75.9%
activity at 3 µM ([2]; Dose 3 µM, read-out: B. taurus mitochondrial complex I activity): 37%
activity at 15 µM ([2]; Dose 15 µM, read-out: B. taurus mitochondrial complex I activity): 13.2%
activity at 37.5 µM ([2]; Dose 37.5 µM, read-out: B. taurus mitochondrial complex I activity): 1.26%
activity at 75 µM ([2]; Dose 75 µM, read-out: B. taurus mitochondrial complex I activity): 2.32%
Log IC50 B. taurus complex I ([2]; log10 of IC50 in µM, B. taurus mitochondria): 0.49 µM
